Test results as given in paper PMC10983009 (Journal of Medicinal Chemistry, 2024).
pIC50: −log10 of the molar value. Several values for one entry are separate records, joined by “and”; a condition that tells them apart may be missing. Equal entries are not always repeated. Where two headings read alike, the source gives them in different places. Marks after values point to notes of the source that are not given here. Values belong to the compound of their own block, whether it stands above or below them.

Columns and labels:
[1] = compound remaining, literature value; cited from earlier work
[2] = target: TNIK(h) (Homo sapiens, UniProt Q9UKE5); conditions: at 1 μM; cited from earlier work
[3] = target: DDR1(h) (Homo sapiens, UniProt Q08345); conditions: at 1 μM; cited from earlier work
[4] = compound remaining, literature value; cited from earlier work; remark: listed apart in the source
[5] = system: Caco-2 cells; conditions: literature value, cited from earlier work
[6] = In vivo PK exposure in mouse model; conditions: male, NOD-SCID, po, 25 mg/kg
[7] = Caco-2 permeability assay; assay type: in vitro ADME; conditions: human, Caco-2, pH 7.4
[8] = target: T1, ALK4/ACVR1β (Homo sapiens, UniProt P36896); experiment: Radiometric in vitro kinase assay
T1 sequence (P36896 24-505): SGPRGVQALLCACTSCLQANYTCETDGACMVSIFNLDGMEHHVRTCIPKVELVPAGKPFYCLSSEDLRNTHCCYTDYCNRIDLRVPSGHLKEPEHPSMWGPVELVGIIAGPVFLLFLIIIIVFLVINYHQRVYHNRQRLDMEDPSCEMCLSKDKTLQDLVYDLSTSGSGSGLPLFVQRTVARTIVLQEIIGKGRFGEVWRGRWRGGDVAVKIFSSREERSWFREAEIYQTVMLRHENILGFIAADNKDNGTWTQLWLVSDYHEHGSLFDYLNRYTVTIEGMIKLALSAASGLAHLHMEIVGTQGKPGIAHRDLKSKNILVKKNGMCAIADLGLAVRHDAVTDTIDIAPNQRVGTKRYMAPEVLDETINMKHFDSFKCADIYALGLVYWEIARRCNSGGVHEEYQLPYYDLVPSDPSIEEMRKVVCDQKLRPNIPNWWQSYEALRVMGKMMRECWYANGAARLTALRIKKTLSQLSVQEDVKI

[9] = Liver microsomal metabolic stability assay; assay type: in vitro ADME, human; conditions: compound remaining after 60 min at 37 °C, 1 μM
[10] = Liver microsomal metabolic stability assay; assay type: in vitro ADME, CD-1 mouse (male); conditions: compound remaining after 60 min at 37 °C, 1 μM
[11] = target: Full Kinase Panel (422-member kinase set); experiment: Eurofins Full Kinase Panel KinaseProfiler, whole panel; assay type: biochemical; conditions: at 1 μM
[12] = system: H3.3K27M, ACVR1^R206H mutant HSJD-DIPG-007 cells; conditions: 25 mg/kg for 28 days; cited from earlier work

DDR1(h), sequence (Q08345 19-913): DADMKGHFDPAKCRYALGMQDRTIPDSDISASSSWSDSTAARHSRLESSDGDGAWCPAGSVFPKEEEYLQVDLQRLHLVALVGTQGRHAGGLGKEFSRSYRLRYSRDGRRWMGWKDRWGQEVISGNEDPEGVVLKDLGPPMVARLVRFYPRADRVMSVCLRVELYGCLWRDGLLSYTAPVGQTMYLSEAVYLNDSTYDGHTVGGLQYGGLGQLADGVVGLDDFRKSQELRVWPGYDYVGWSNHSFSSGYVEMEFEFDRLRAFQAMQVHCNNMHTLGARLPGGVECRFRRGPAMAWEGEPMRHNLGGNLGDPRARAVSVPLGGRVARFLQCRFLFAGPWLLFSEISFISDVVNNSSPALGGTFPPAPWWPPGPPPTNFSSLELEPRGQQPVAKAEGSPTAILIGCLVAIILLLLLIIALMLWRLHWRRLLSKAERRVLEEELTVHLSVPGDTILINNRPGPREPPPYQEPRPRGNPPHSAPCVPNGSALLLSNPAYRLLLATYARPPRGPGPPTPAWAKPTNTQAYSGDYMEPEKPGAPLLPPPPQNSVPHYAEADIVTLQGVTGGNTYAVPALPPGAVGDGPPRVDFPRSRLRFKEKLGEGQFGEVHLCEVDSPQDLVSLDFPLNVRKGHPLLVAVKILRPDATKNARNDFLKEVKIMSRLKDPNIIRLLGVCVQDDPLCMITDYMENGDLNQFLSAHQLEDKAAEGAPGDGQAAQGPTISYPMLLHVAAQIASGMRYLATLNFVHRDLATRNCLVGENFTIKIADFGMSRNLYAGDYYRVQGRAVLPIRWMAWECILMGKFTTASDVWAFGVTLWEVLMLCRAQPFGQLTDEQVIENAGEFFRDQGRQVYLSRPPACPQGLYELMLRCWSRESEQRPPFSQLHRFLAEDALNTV
TNIK(h), sequence (Q9UKE5 whole entry): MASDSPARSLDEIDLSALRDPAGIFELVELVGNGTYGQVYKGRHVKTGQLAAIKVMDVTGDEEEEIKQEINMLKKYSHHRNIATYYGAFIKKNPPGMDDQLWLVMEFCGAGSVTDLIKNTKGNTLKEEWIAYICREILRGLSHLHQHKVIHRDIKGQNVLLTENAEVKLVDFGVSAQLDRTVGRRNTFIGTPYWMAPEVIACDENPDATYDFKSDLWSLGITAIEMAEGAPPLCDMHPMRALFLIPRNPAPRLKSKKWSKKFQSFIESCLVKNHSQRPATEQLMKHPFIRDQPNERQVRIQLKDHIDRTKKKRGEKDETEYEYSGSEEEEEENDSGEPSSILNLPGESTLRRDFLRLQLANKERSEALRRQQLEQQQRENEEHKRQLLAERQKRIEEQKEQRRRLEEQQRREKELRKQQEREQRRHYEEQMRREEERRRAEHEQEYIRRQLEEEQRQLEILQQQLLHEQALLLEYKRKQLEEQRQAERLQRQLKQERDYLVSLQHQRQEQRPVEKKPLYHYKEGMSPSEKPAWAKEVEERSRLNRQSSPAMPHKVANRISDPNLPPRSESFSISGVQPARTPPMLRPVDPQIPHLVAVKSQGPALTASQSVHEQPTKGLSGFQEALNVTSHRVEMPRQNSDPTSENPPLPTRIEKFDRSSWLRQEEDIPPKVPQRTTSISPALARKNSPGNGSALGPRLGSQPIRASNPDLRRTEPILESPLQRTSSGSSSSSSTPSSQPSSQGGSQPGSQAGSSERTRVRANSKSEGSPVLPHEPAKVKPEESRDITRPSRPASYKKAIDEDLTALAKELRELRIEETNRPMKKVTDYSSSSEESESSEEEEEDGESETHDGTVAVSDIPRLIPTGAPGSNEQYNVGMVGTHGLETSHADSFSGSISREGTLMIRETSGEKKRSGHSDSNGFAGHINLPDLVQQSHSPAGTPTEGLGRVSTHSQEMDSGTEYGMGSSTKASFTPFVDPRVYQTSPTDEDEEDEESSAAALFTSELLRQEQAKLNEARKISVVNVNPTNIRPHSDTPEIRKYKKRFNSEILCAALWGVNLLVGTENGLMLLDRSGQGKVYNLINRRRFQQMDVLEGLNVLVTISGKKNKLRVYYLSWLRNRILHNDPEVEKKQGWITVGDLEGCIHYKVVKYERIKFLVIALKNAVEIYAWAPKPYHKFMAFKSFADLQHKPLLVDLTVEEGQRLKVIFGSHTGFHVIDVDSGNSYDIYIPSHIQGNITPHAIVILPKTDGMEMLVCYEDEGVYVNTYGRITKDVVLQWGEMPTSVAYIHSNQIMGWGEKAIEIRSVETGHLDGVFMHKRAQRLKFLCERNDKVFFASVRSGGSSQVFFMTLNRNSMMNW

recovery at 2 h, 5 μM [7]: < 15% | pIC50 [8]: 5.93 | Microsomal Stability Assay HLM (%) [9]: > 70% | Microsomal Stability Assay MLM (%) [10]: > 70% | kinases inhibited by more than 50% [11]: 3%
Structure (SMILES): COc1cc(-c2cncc3c2CN(C)Cc2cc(N4CCNCC4)ccc2-3)cc(OC)c1OC [Compound M4K2304, 6-Methyl-9-(piperazin-1-yl)-4-(3,4,5-trimethoxyphenyl)-6,7-dihydro-5H-benzo[c]pyrido[3,4-e]azepine]

recovery at 2 h, 5 μM [7]: < 15%
Structure (SMILES): COc1cc(-c2cncc3c2CN(C)Cc2cc(N4CCN(C)CC4)ccc2-3)cc(OC)c1OC [Compound M4K2306, 6-Methyl-9-(4-methylpiperazin-1-yl)-4-(3,4,5-trimethoxyphenyl)-6,7-dihydro-5H-benzo[c]pyrido[3,4-e]azepine]

Continued, compound first:

Structure (SMILES): COc1cc(-c2cncc(-c3ccc(N4CCNCC4)cc3)c2C)cc(OC)c1OC [Compound M4K2009]
Microsomal Stability Assay MLM (%) [1]: 65 ^a % and 65% | inhibition of TNIK [2]: almost complete inhibition | inhibition of DDR1 [3]: almost complete inhibition | Microsomal Stability Assay HLM (%) [4]: 71 ^a % and 71% | Caco-2 Permeability Assay Papp_AB ([5]; A to B): 5.4 ^a 10^–6 cm/s | Caco-2 Permeability Assay Papp_BA ([5]; B to A): 1.5 ^a 10^–6 cm/s

Structure (SMILES): COc1cc(-c2cncc3c2CCOc2cc(N4CCN(C)CC4)ccc2-3)cc(OC)c1OC [Compound M4K2281, 9-(4-Methylpiperazin-1-yl)-4-(3,4,5-trimethoxyphenyl)-5,6-dihydrobenzo[2,3]oxepino[4,5-c]pyridine]
concentration at 24 h [6]: 0 nM

Structure (SMILES): COc1cc(-c2cc(-c3ccc(N4CCNCC4)cc3)cnc2C)cc(OC)c1OC [LDN-214117]
survival of mice bearing orthotopic xenografts [12]: extended survival
